In general, IC50 refers to the point on the concentration scale where inhibition reaches its midpoint. Read a high IC50 as lower potency.

human BTK, sequence (Q06187 whole entry): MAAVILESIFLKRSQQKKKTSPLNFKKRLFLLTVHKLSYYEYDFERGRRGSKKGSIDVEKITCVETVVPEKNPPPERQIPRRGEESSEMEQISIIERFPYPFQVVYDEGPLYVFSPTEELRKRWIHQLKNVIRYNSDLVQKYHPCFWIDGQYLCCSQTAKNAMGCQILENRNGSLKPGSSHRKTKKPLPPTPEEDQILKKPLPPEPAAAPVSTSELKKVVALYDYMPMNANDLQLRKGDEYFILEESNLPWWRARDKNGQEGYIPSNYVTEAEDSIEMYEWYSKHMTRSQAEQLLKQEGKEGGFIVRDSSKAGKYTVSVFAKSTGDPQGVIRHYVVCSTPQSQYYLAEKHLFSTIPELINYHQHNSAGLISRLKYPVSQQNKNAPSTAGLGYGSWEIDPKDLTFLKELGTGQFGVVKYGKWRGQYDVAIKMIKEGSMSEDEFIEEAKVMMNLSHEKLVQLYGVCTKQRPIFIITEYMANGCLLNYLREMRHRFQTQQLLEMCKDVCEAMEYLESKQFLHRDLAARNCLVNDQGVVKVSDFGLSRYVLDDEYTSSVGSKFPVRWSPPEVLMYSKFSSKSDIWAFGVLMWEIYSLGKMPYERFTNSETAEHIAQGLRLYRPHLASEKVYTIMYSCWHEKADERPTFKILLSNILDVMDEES

In the assay the target is human BTK (Homo sapiens (Human), UniProt Q06187). The experiment in a line: BTK activity, Invitrogen SelectScreen Biochemical Kinase Profiling Service, Z'-LYTE Screening Protocol. The following applies: Z'-LYTE assay, ATP concentration at Km. As for the experimental part:
BTK activity was determined using Invitrogen's SelectScreen® Biochemical Kinase Profiling Service using the Z′-LYTE Screening Protocol and Assay Conditions (ATP concentration at Km).
As for `C=CC(=O)Nc1cccc2c1OCc1[nH]c(=O)c3c(N)n(-c4cc(O)ccc4C)nc3c1-2` [Example 1, N-[14-amino-15-(5-hydroxy-2-methylphenyl)-12-oxo-8-oxa-11,15,16-triazatetracyclo[8.7.0.0^2,7.0^13,17]heptadeca-1(10),2(7),3,5,13,16-hexaen-6-yl]prop-2-enamide], the IC50 is < 10 nM.
Turning to `Cc1ccc(O)cc1-n1nc2c3c([nH]c(=O)c2c1N)COc1c(NC(=O)/C=C/CN(C)C)cccc1-3` [Example 2, (2E)-N-[14-amino-15-(5-hydroxy-2-methylphenyl)-12-oxo-8-oxa-11,15,16-triazatetracyclo[8.7.0.0^2,7.0^13,17]heptadeca-1(10),2(7),3,5,13,16-hexaen-6-yl]-4-(dimethylamino)but-2-enamide], the IC50 was < 10 nM.
Regarding `CN(C)C/C=C/C(=O)Nc1cccc2c1OCc1[nH]c(=O)c3c(N)n(-c4ccc(Oc5ccccc5)cc4)nc3c1-2` [Example 3, (2E)-N-[14-amino-12-oxo-15-(4-phenoxyphenyl)-8-oxa-11,15,16-triazatetracyclo[8.7.0.0^2,7.0^13,17]heptadeca-1(10),2(7),3,5,13,16-hexaen-6-yl]-4-(dimethylamino)but-2-enamide], the IC50 is < 10 nM.
The result for `C=CC(=O)Nc1cccc2c1OCc1[nH]c(=O)c3c(N)n(-c4ccccc4F)nc3c1-2` [Example 4, N-[14-amino-15-(2-fluorophenyl)-12-oxo-8-oxa-11,15,16-triazatetracyclo[8.7.0.0^2,7.0^13,17]heptadeca-1(10),2(7),3,5,13,16-hexaen-6-yl]prop-2-enamide] reads 10 to 100 nM.

These data come from patent US9956208B2, “Compounds for the treatment of cancer and inflammatory diseases” (C2 Pharmaceuticals, LLC, priority 2013, dated 2018).
